Tests used:
[1] = target: T1, GR (Homo sapiens, UniProt P04150); experiment: GAL4-GR / UAS-luc co-transfection reporter assay in HEK293 cells; format: cell-based; set-up: co-transfecting UAS-reporter and GAL4-LBD of the nuclear receptors LXRα, LXRβ and GR; GAL4 (fusion partner); expressed in transfected cells; host or cells: HEK293 cells; mouse primary hepatocytes; settings: Example 7, 100 nM Dex
T1 sequence (P04150 524-758 limits assumed): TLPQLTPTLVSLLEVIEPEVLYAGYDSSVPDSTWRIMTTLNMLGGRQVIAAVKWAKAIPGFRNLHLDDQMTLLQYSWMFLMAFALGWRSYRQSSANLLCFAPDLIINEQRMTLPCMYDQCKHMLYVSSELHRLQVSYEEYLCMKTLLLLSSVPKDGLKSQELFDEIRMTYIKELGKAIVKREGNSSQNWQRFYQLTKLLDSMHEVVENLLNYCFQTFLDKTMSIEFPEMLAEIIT
Procedure: (§1) RLU=relative luciferase units.
as §1
Further experiments were then carried out to determine the inhibitory potencies for the individual LXR isoforms in HEK 293 cells by co-transfecting UAS-reporter and GAL4-LBD of the nuclear receptors LXRα, LXRβ and GR and then treating with 8 different concentrations of GSK2033. To assess suppression of ligand activated receptors, the transfected cells were co-treated with increasing doses of GSK2033, in addition to T09091317 or Dex (dexamethasone) (at EC80 of LXR isoforms and GR, respectively).
A number of experiments were carried out to determine the relative inhibitory potencies of GSK2033, Amgen 54 and DMHCl for the individual LXR isoforms in HEK 293 cells by co-transfecting UAS-reporter and GAL4-LBD of the nuclear receptors LXRα, LXRβ and GR and then treating with 6 different concentrations of GSK2033, Amgen 54 and DMHCl. To assess suppression of ligand activated receptors, the transfected cells were co-treated with increasing doses of GSK2033, Amgen 54 and DMHCl, in addition to T09091317 or Dex (at EC80 of LXR isoforms and GR, respectively).

[2] = tested on: G6Pc; experiment: G6Pc gene expression in mouse primary hepatocytes; settings: LXRα−/− hepatocytes; for G6Pc expression: 100 nM Dex + 10 μM LXR antagonist; for GC-induced G6Pc expression: Example 6, GC alone (10 μM; Dex 100 nM), overnight
Procedure: For the gene expression studies, the isolated hepatocytes were cultured at least 24 hrs prior to treatment with 10 μM Cortisol, 10 μM Triamcinolone acetonide, 10 μM Prednisone, and 100 nM Dex all±10 μM GSK2033 overnight, and then harvested to isolate mRNA.

[3] = tested on: Pepck; experiment: Pepck gene expression in mouse primary hepatocytes; format: cell-based; settings: for GC-induced Pepck expression: Example 6, GC alone (10 μM; Dex 100 nM)
[4] = tested on: Srebp-1c; experiment: Srebp-1c gene expression in mouse primary hepatocytes; format: cell-based; settings: 250 nM T09
[5] = tested on: IL-1β; experiment: IL-1β gene expression in LPS activated mouse primary macrophages (RT-QPCR); format: cell-based; settings: LPS activated macrophages; 250 nM T09, 18 hrs
Procedure: (§2) The expression of genes involved in immune response IL-1β, IL-6 and GILZ was measured following an overnight treatment with Dex 100 nM, 250 nM T0901317 (T09), and/or 10 μM GSK2033 in LPS activated WT, LXR α −/− and LXRβ −/− mouse primary macrophages, by RT-QPCR. Data represent the Avg±SD, N=3. *P<0.05 by One way ANOVA, Student Newman Keuls.
(§3) To assess the ability of GSK2033 to affect GR-mediated inflammatory suppression, a number of gene expression studies were conducted on primary macrophages isolated from WT, LXRα−/− and LXRβ−/− mice. Cells were pre-treated with 10 ng/ml lipopolysaccharide (LPS) for 6 hrs (to induce a potent inflammatory response) followed by treatment of 100 nM Dex, 10 μM GSK2033 and/or 250 nM T09 for 18 hrs.

[6] = tested on: IL-6; experiment: IL-6 gene expression in LPS activated mouse primary macrophages (RT-QPCR); format: cell-based; settings: LPS activated macrophages; 250 nM T09, 18 hrs
Procedure: as §2, §3

[7] = tested on: LXRα−/− mice; experiment: In vivo 5 day Dex ± GSK2033 co-treatment study; set-up: species or system mouse; settings: Dex group
Procedure: LXRα−/− mice were treated with Vehicle (Veh), Dex (2.5 mg/kg) b.i.d. or GSK2033 40 mg/kg (once a day) along with Dex b.i.d. for 5 days. (A) Plasma glucose levels were measured by a colorimetric kit (Wako). (B) Spleen weights were measured at the time of sacrifice, and are presented normalized to body weight. (C) Liver Pepck, FOXO1, Pgc 1α, FGF21, GR and LXRβ gene expression measured by QPCR. Data represent the Avg±SEM, N=2-5. *P<0.05 by One way ANOVA, Student Newman Keuls.
Having observed promising results with GSK2033 co-treatment with Dex in-vitro (GSK2033-mediated suppression of GC-induced gluconeogenic side effects without affecting desirable immune suppression); a study was conducted, in which whole body LXRα−/− mice were treated with vehicle (Veh), 2.5 mg/kg bid (subcutaneous injection) Dex or Dex+40 mg/kg GSK2033 (once a day intraperitoneal injection) for 5 days, and sacrificed at lights on.

[8] = tested on: mouse primary hepatocytes; experiment: Glucose production (glucose output) in mouse primary hepatocytes; format: cell-based
Procedure: (§4) T09 treatment was used as a positive control for LXR activity. (D) Glucose output over 24 hrs from LXRα−/− and LXRβ−/− mouse primary hepatocytes following Dex 100 nM±10 μM GSK2033 treatment. (E) Glucose output over 8 hrs from WT hepatocytes following Dex 500 nM±10 μM GSK2033 treatments. Data represent the Avg±SD, N=3. *P<0.05 by One way ANOVA, Student Newman Keuls. Legend: V=vehicle, G=GSK2033 (LXR antagonist); D=dexamethasone (GR agonist); and T09=T0901317 (LXR agonist).
While not wishing to be limited by theory, subsequent to conducting these initial studies it was realized that 24 hour incubation of hepatocytes in gluconeogenic media may be too long. In the literature, for this type of assay, primary heptocytes are usually incubated up to 12 hours. As such, for subsequent studies of the present application, WT cells were treated with 500 nM Dex for 8 hours to be able to measure detectable levels of glucose in the media.

[9] = tested on: tyrosine aminotransferase (TAT); experiment: TAT gene expression in mouse primary hepatocytes; format: cell-based; settings: 100 nM Dex
Procedure: as §4, with “Data represent the Avg±SD, N=3. *P<0.05 by One way ANOVA, Student Newman Keuls.” left out

[10] = Example 8, LXRα−/− hepatocytes, 100 nM Dex + 10 μM LXR antagonist

SMILES: CC(CCC(=O)N(C)C)[C@H]1CC[C@H]2C3CC=C4CC(Cl)CC[C@]4(C)C3CC[C@]12C (stereo partly drawn) [DMHCl]
- Dex induced GR activity [1]: unaffected
- G6Pc expression ([2]; Example 8): 3.9 fold
- Pepck expression [3, 10]: 1.4 fold

SMILES: CC1(C)O[C@@H]2C[C@H]3[C@@H]4CCC5=CC(=O)C=C[C@]5(C)[C@@]4(F)[C@@H](O)C[C@]3(C)[C@]2(C(=O)CO)O1 [Triamcinolone acetonide, triamcinolone acetonide]
- GC-induced G6Pc expression [2]: 27.3 fold
- GC-induced Pepck expression ([3]; LXRα−/− hepatocytes, overnight): 6.1 fold

SMILES: C[C@]12CCC(=O)C=C1CC[C@@H]1[C@@H]2[C@@H](O)C[C@@]2(C)[C@H]1CC[C@]2(O)C(=O)CO [Cortisol, cortisol (hydrocortisone)]
- GC-induced G6Pc expression [2]: 10.3 fold
- GC-induced Pepck expression ([3]; LXRα−/− hepatocytes, overnight): 23.9 fold

SMILES: C[C@]12C=CC(=O)C=C1CC[C@@H]1[C@@H]2C(=O)C[C@@]2(C)[C@H]1CC[C@]2(O)C(=O)CO [Prednisone, prednisone]
- GC-induced G6Pc expression [2]: 22.3 fold
- GC-induced Pepck expression ([3]; LXRα−/− hepatocytes, overnight): 9.3 fold

SMILES: O=S(=O)(c1ccccc1)N(CC(F)(F)F)c1ccc(C(O)(C(F)(F)F)C(F)(F)F)cc1 [T09]
- Srebp-1c expression (induction) ([4]; LXRα−/− hepatocytes): 3.7 fold
- Srebp-1c expression (induction) ([4]; LXRβ−/− hepatocytes): 42.0 fold
- Srebp-1c expression (induction) ([4]; WT hepatocytes): 37.7 fold
- IL-1β expression, LXR agonist alone [5]: suppression
- IL-6 expression, LXR agonist alone [6]: suppression

SMILES: C[C@@H]1C[C@H]2[C@@H]3CCC4=CC(=O)C=C[C@]4(C)[C@@]3(F)[C@@H](O)C[C@]2(C)[C@@]1(O)C(=O)CO [Dex, dexamethasone]
- liver FOXO 1 gene expression (induction) [7]: 3.3 fold
- liver Pepck gene expression (induction) [7]: 3.7 fold
- glucose secretion (glucose output) ([8]; LXRα−/− hepatocytes, 100 nM Dex alone, 24 hours): 2.2 fold
- glucose secretion (glucose output) ([8]; WT hepatocytes, 500 nM Dex alone, 8 hours): 3 fold
- TAT expression (induction) ([9]; LXRα−/− hepatocytes): 12.7 fold
- TAT expression (induction) ([9]; LXRβ−/− hepatocytes): 9.7 fold
- TAT expression (induction) ([9]; WT hepatocytes): 20.8 fold
- GC-induced G6Pc expression [2]: 11.2 fold
- Dex-mediated G6Pc expression ([2]; Example 8, 100 nM Dex alone): 10.3 fold
- Pepck expression ([3]; Example 3, LXRα−/− hepatocytes, 100 nM Dex alone): 15.7 fold
- Pepck expression ([3]; Example 3, WT hepatocytes, 100 nM Dex alone, overnight): 8.5 fold
- GC-induced Pepck expression ([3]; LXRα−/− hepatocytes, overnight): 23.2 fold
- Dex-induced Pepck expression ([3]; Example 8, LXRα−/− hepatocytes, 100 nM Dex alone): 15.8 fold

SMILES: CS(=O)(=O)c1ccc(C#CC(O)(c2ccc(N(CC3CC3)S(=O)(=O)c3ccccc3)cc2)C(F)(F)F)cc1 (stereo not drawn) [Amgen 54]
- Dex induced GR activity [1]: unaffected
- G6Pc expression ([2]; Example 8): 6.5 fold
- Pepck expression [3, 10]: 8.4 fold

Reference: patent US9428753B2, “Use of LXR antagonists for treatment of side effects of elevated glucocorticoid levels” (The Governing Council of the University of Toronto, priority 2013, dated 2016)
